Experimental data from publication PMC8384680 (Journal of pharmaceutical and biomedical analysis, 2021).
Converted amounts (≈) assume the structure as drawn.

Assays:
BRD4(1) = conditions: cell-free assays, ref [10], cited from earlier work
[1] = Stability of primary stock solution; type: physicochemical; conditions: stored at −80°C for 88-days, R.S.D ≤ 1.16%
[2] = Stability of JQ1 in microdialysate; type: physicochemical
BRD4(2) = conditions: cell-free assays, ref [10], cited from earlier work

Compound: Cc1sc2c(c1C)C(c1ccc(Cl)cc1)=N[C@@H](CC(=O)OC(C)(C)C)c1nnc(C)n1-2 [JQ1]
- IC50 BRD4(1) (BRD4(1)): 0.0352 µg/mL (≈ 0.077 µM)
- IC50 (BRD4(1); read-out: IC50 BRD4(1)): 77 nM
- Stability of primary stock solution (in words) [1]: stable
- % Mean deviation ([2]; Bench-top 4C: 24h at 4°C, nominal 1.5 ng/mL): 5.96%
- % Mean deviation ([2]; Bench-top RT: 24h at room temperature, nominal 1.5 ng/mL): 3.23%
- % Mean deviation ([2]; Bench-top RT: 24h at room temperature, nominal 400 ng/mL): 5.26%
- % Mean deviation ([2]; Long-term: 21 days at −80°C, nominal 1.5 ng/mL): 12.83%
- % Mean deviation ([2]; Long-term: 21 days at −80°C, nominal 400 ng/mL): 5.62%
- % Mean deviation ([2]; Process: 48 h in auto sampler at 4°C, nominal 1.5 ng/mL): 0.46%
- % Mean deviation ([2]; Process: 48 h in auto sampler at 4°C, nominal 400 ng/mL): 1.39%
- Autosampler (post-extractive) stability (in words) ([2]; extracted quality control samples, microdialysate, autosampler 48 h): stable
- Freeze-thaw stability (in words) ([2]; microdialysate, three freeze-thaw cycles): no-stability related issues
- Short-term stability (in words) ([2]; spiked microdialysate, 24 h at 4°C and room temperature): stable
- Long-term stability (in words) ([2]; spiked microdialysate, −80°C for 21 days): confirmed
- % Mean deviation ([2]; three freeze-thaw cycles, nominal 1.5 ng/mL): 11.77%
- IC50 BRD4(2) (BRD4(2)): 0.0151 µg/mL (≈ 0.033 µM)
- IC50 (BRD4(2); read-out: IC50 BRD4(2)): 33 nM
